# According to patent US10034836B2, “Formulations of guanylate cyclase C agonists and methods of use” (SYNERGY PHARMACEUTICALS, INC., priority 2008, dated 2018):
# Where a SMILES comes first, the peptide text is derived from it. Bridges are numbered along the chain shown (N, C = ends).
# Legend:
# [1] = Stability in simulated intestinal fluid (SIF), HPLC analysis; type: in vitro ADME
# Experimental: FIG. 2B: HPLC chromatographic spectra of SP-304 samples after incubation with: (A) heat-inactivated SIF for 300 minutes, or (B) SIF for 120 minutes. The arrows show the elution position of SP-304.
# FIGS. 7D-1-7D-2: HPLC chromatograms of SP-304 incubated for 0 min in SIF (FIG. 7D-1) and 60 min in SIF (FIG. 7D-2), respectively. The arrows indicate the elution positions of the parent SP-304 peptides. […] These new peptide peaks represent degradation products of SP-304.
# FIGS. 7E-1-7-E2: HPLC chromatograms of SP-332 incubated for 0 min in SIF (FIG. 7E-1) and 120 min in SIF (FIG. 7E-2), respectively. The arrows indicate the elution positions of the parent SP-332 peptides.
# FIGS. 7F-1-7F-2: HPLC chromatograms of SP-333 incubated for 0 min in SIF (FIG. 7F-1) and 120 min in SIF (FIG. 7F-2), respectively. The arrows indicate the elution positions of the parent SP-333 peptides.
# FIGS. 7G-1-7G-5: Incubation of SP-333 with SIF for 2, 6, 12 and 24 hrs. Effect of SIF digestion on the activity of SP-333 in T84 stimulation assay was determined (FIG. 7G-1) and samples were also analyzed by HPLC (FIGS. 7G2-5). The elution positions of the parent peptide and its metabolites are indicated by arrows.
# The physical stability of SP-304 peptide exposed to SIF was evaluated by HPLC using the method described for SGF digestion. […]
# [2] = Stability in simulated intestinal fluid (SIF), biological activity by cGMP synthesis in T84 cells; type: in vitro ADME
# Experimental: FIG. 2A: Biological activity of SP-304 incubated for varying lengths of time in simulated intestinal fluid (SIF). SP-304 samples were incubated for 0, 30, 60, 90, 150, and 300 min, respectively, and then tested for their ability to stimulate cGMP synthesis in T84 cells. The cGMP stimulation activity in the sample at 0 min of incubation time in SIF was taken as 100% biological activity. The activities of the other SP-304 incubation samples were calculated as the percentage of activity relative to that of the 0 min sample. Data points shown are the average of triplicate measurements±SD.
# (§1) FIG. 7A: Biological activity of SP-333 incubated for varying lengths of time in simulated intestinal fluid (SIF). SP-333 samples incubated for 0, 5, 10, 30, 60, and 120 min, respectively, were tested for their ability to stimulate cGMP synthesis in T84 cells. The control sample marked as C120 was produced by incubating SP-333 with heat inactivated SIF for 120 min. Samples from the incubations were removed and heated at 95° C. for 5 min to inactivate digestive enzymes and then used to stimulate cyclic GMP synthesis in T84 cells. The cGMP stimulation activity in the sample at 0 min of incubation time in SIF was taken as 100% biological activity. The activities of the other SP-304 incubation samples were calculated as the percentage of activity relative to that of the 0 min sample. Data points shown are the average of triplicate measurements±SD.
# as §1, with “FIG. 7B:” for “FIG. 7A:”, “of SP-332” for “of SP-333”, “incubating SP-332” for “incubating SP-333”
# FIG. 7C: Biological activity of SP-304 incubated for varying lengths of time in simulated intestinal fluid (SIF). SP-304 samples incubated for 0, 10, and 60 min, respectively, were tested for their ability to stimulate cGMP synthesis in T84 cells. The control samples marked as C0 and C60 were produced by incubating SP-304 with heat inactivated SIF for 0 and 60 min, respectively. Samples from the incubations were removed and heated at 95° C. for 5 min to inactivate digestive enzymes and then used to stimulate cyclic GMP synthesis in T84 cells. The cGMP stimulation activity in the sample at 0 min of incubation time in SIF was taken as 100% biological activity. The activities of the other SP-304 incubation samples were calculated as the percentage of activity relative to that of the 0 min sample. […]
# FIGS. 7G-1-7G-5: Incubation of SP-333 with SIF for 2, 6, 12 and 24 hrs. Effect of SIF digestion on the activity of SP-333 in T84 stimulation assay was determined (FIG. 7G-1) and samples were also analyzed by HPLC (FIGS. 7G2-5). […]
# The stability of SP-304 was also evaluated after incubation with simulated intestinal fluid (SIF) by measuring its biological activity and by HPLC analyses (FIGS. 2A & 2B). […]
structure (smiles),measurement,setting,value
"CC(C)C[C@H](NC(=O)[C@@H]1CSSC[C@@H]2NC(=O)[C@H](CC(C)C)NC(=O)[C@H](CCC(=O)O)NC(=O)[C@@H](NC(=O)[C@H](CCC(=O)O)NC(=O)[C@H](CC(=O)O)NC(=O)[C@@H](N)CC(N)=O)CSSC[C@H](NC(=O)[C@H](C)NC(=O)[C@H](C(C)C)NC(=O)[C@H](CC(N)=O)NC(=O)[C@H](C(C)C)NC2=O)C(=O)N[C@@H]([C@@H](C)O)C(=O)NCC(=O)N1)C(=O)O [SP-304, Asn^1-Asp^2-Glu^3-Cys^4-Glu^5-Leu^6-Cys^7-Val^8-Asn^9-Val^10-Ala^11-Cys^12-Thr^13-Gly^14-Cys^15-Leu^16] (H-NDECELCVNVACTGCL-OH; disulfide 4-12, 7-15)",HPLC analysis after incubation with heat-inactivated SIF,[1],remained intact
same,loss of potency following digestion with SIF,[2],about 30%
same,reduction in biological activity after incubation in SIF,[2],30%
same,reduction of biological activity following incubation in SIF,[2]; pH 6,about 30%
